Assay results taken from publication PMC7228038 (Journal of medicinal chemistry, 2019).

Experiments:
[1] = Oxidative metabolic stability in murine microsomes; conditions: for CLint scaled at 0.8 µM: mouse, microsomes
[2] = target: DCN1-UBE2M interaction (Homo sapiens, UniProt Q96GG9); assay: biochemical; format: binding; conditions: for Activity in TR-FRET binding assay, in words: maximum tested concentration 15 μM, values in Supplementary Tables
[3] = tested on: HCC95 cells; conditions: dose-response up to 30 μM, 5 hours
[4] = target: T1, DCN5 (Homo sapiens, UniProt Q9BTE7); assay: Pulse-chase assay of NEDD8 transfer, DCN5 stimulated; format: biochemical; conditions: 10 μM; NEDD8 transfer from UBE2M to CUL2
T1 sequence (Q9BTE7 1-237): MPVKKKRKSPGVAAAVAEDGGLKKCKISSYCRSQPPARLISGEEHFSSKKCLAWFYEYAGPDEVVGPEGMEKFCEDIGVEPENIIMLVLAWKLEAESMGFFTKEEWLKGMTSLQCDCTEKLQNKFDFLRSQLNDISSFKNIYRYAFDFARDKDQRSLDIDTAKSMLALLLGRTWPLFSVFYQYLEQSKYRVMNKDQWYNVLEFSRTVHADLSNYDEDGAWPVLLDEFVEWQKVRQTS

[5] = target: DCN2 (Homo sapiens, UniProt Q6PH85); assay: Pulse-chase assay of NEDD8 transfer, DCN2 stimulated; format: biochemical; conditions: 10 μM; NEDD8 transfer from UBE2M to CUL2
[6] = target: T2, DCN3 (Homo sapiens, UniProt Q8IWE4); assay: Pulse-chase assay of NEDD8 transfer, DCN3 stimulated; format: biochemical; conditions: 10 μM; NEDD8 transfer from UBE2M to CUL2
T2 sequence (Q8IWE4 1-304): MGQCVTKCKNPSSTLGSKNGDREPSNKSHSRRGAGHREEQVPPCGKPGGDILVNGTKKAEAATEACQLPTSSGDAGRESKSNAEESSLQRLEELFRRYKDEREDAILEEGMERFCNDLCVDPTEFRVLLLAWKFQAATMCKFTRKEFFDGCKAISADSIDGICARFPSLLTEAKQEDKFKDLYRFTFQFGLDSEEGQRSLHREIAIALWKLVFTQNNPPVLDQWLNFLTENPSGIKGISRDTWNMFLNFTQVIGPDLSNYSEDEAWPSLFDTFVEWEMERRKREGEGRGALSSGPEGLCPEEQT

[7] = target: T3, DCN4 (Homo sapiens, UniProt Q92564); assay: Pulse-chase assay of NEDD8 transfer, DCN4 stimulated; format: biochemical; conditions: 10 μM; NEDD8 transfer from UBE2M to CUL2
T3 sequence (Q92564 1-292): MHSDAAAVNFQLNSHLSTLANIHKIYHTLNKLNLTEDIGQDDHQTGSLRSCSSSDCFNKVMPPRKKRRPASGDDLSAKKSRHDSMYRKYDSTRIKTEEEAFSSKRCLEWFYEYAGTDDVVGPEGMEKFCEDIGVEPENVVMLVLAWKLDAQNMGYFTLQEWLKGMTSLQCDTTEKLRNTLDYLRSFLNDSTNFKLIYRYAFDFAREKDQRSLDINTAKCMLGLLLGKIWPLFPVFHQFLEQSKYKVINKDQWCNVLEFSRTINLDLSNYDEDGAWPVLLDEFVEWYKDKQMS

[8] = tested on: cullin neddylation in HCC95 cells; conditions: 10 μM (MLN4924 1 μM), 48 hours, most pronounced on CUL1 and CUL3
[9] = tested on: cullin neddylation in CAL33 cells; conditions: 10 μM (MLN4924 1 μM), 48 hours, most pronounced on CUL1 and CUL3

Chain of DCN1-UBE2M interaction (Q96GG9 whole entry): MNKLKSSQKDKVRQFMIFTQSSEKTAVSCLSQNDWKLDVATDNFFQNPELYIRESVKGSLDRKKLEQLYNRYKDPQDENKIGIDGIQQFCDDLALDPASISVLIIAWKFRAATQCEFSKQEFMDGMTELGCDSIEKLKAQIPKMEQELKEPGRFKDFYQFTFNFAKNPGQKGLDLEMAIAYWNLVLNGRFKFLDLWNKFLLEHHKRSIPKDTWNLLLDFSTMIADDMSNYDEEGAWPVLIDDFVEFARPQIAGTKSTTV
Chain of DCN2 (Q6PH85 whole entry): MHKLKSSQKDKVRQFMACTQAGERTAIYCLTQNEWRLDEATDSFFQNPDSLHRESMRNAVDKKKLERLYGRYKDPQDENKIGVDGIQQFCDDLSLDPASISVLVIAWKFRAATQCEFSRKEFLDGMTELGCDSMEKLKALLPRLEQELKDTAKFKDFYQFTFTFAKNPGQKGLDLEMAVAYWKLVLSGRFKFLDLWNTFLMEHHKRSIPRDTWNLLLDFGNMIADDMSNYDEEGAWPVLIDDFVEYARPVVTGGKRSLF

Question: With `Cc1cccc(C(=O)N[C@@H]2C(=O)Nc3c(c(C)nn3-c3ccccc3)[C@@H]2c2ccc(F)cc2)c1` (racemic) [Compound 3] as the compound, how does the CLint scaled at 0.8 µM [1] read?
Answer: Its CLint scaled at 0.8 µM is 50.3 ± 5 mL/min/kg.

Question: And the “Murine microsomal stability compared with that previously reported for NAcM-OPT” value ([1]; murine microsomes, relative to NAcM-OPT)?
Answer: The value was at most 2 fold.

Question: Which CLint scaled at 0.8 µM [1] does the source give for `Cc1cccc(C(=O)N[C@@H]2C(=O)Nc3c(c(C)nn3C3CCCC3)[C@@H]2c2ccc(F)cc2)c1` (racemic) [Compound 24] here?
Answer: The CLint scaled at 0.8 µM was 116 ± 10.7 mL/min/kg.

Question: Which “Activity in TR-FRET binding assay, in words” value (“Activity” below) [2] does the source give for `CCn1nc(C)c2c1NC(=O)[C@@H](NC(=O)c1cccc(C)c1)[C@H]2c1ccc(F)cc1` (racemic) [Compound 65] here?
Answer: The value was “roughly equipotent to the phenyl derivative (3)”.

Question: What about the CLint scaled at 0.8 µM [1] of the same compound?
Answer: Its CLint scaled at 0.8 µM is 89.7 ± 4.7 mL/min/kg.

Question: Which “Activity” value [2] does the source give for `Cc1cccc(C(=O)N[C@H]2C(=O)Nc3c(c(C)nn3-c3ccccc3)[C@@H]2c2ccc(F)cc2)c1` (racemic) [Compound 87, N-((4S,5R)-4-(4-fluorophenyl)-3-methyl-6-oxo-1-phenyl-4,5,6,7-tetrahydro-1H-pyrazolo[3,4-b]pyridin-5-yl)-3-methylbenzamide] here?
Answer: Its value is “inactive”.

Question: And the “Effect on reactive oxygen species (DCFDA)” value [3]?
Answer: The value was “neither 27, 87, nor NAcM-OPT have any measurable effects on reactive oxygen species”.

Question: Which CLint scaled at 0.8 µM [1] does the source give for `Cc1ccc([C@H]2c3c(C)nn(-c4ccccc4)c3NC(=O)[C@H]2NC(=O)c2cccc(C)c2)cc1` (relative stereo) [Compound 1, 3-methyl-N-(rel-(4S,5S)-3-methyl-6-oxo-1-phenyl-4-(p-tolyl)-4,5,6,7-tetrahydro-1H-pyrazolo[3,4-b]pyridin-5-yl)benzamide] here?
Answer: The CLint scaled at 0.8 µM was 160 ± 5 mL/min/kg.

Question: For `CCN1C(=O)[C@@H](NC(=O)c2cccc(C)c2)[C@@H](c2ccc(F)cc2)c2c(C)nn(-c3ccccc3)c21` (relative stereo) [Compound 27, N-(rel-(4S,5S)-7-ethyl-4-(4-fluorophenyl)-3-methyl-6-oxo-1-phenyl-4,5,6,7-tetrahydro-1H-pyrazolo[3,4-b]pyridin-5-yl)-3-methylbenzamide], which “Inhibition of DCN5 stimulated cullin neddylation (pulse-chase)” value [4] is on record?
Answer: Its value is “not inhibited”.

Question: What about the “Inhibition of DCN2 stimulated cullin neddylation (pulse-chase)” value [5] of the same compound?
Answer: The value was “inhibiting”.

Question: And the CLint scaled at 0.8 µM [1]?
Answer: Its CLint scaled at 0.8 µM is 44.9 ± 3.7 mL/min/kg.

Question: And the “Inhibition of DCN3 stimulated cullin neddylation (pulse-chase)” value [6]?
Answer: Its value is “not inhibited”.

Question: What about the “Inhibition of DCN4 stimulated cullin neddylation (pulse-chase)” value [7] of the same compound?
Answer: Its value is “not inhibited”.

Question: Which IC50 [2] does the source give for `Cc1nn(-c2ccccc2)c2c1[C@H](c1ccc(F)cc1)[C@H](NC(=O)c1cccc(C(F)(F)F)c1)C(=O)N2` [Compound 11] here?
Answer: The IC50 was 3.5 ± 0.5 µM.

Question: For `Cc1cccc(NC(=O)[C@@H]2C(=O)Nc3c(c(C)nn3-c3ccccc3)[C@@H]2c2ccc(F)cc2)c1` [Compound 128], which “Activity” value [2] is on record?
Answer: Its value is “not tolerated”.

Question: With `Cc1nn(-c2ccccc2)c2c1[C@H](c1ccc(F)cc1)[C@H](C(=O)Nc1ccc(Cl)c(Cl)c1)C(=O)N2` [Compound 131] as the compound, how does the “Activity” value [2] read?
Answer: The value was “not tolerated”.

Question: What does the source list for `NS(=O)(=O)OC[C@@H]1C[C@@H](n2ccc3c(N[C@H]4CCc5ccccc54)ncnc32)C[C@@H]1O` [MLN4924]?
Answer: Inhibition of steady-state cullin neddylation (immunoblot), HCC95 [8]: complete blockade of neddylation; Inhibition of steady-state cullin neddylation (immunoblot), CAL33 [9]: complete blockade of neddylation

Question: Which “Effect on reactive oxygen species (DCFDA)” value [3] does the source give for `CCCCN1CCC(N(Cc2ccccc2)C(=O)Nc2ccc(Cl)c(Cl)c2)CC1` [NAcM-OPT, reference compound] here?
Answer: Its value is “neither 27, 87, nor NAcM-OPT have any measurable effects on reactive oxygen species”.
